Laboratory results published in US20220160680A1, “MICROORGANISM MIXTURES, MOLECULES DERIVED THEREFROM, AND METHODS OF USE THEREOF” (B. G. Negev Technologies and Applications Ltd., at …, priority 2018, published 2022).
“Also recorded” adds a separate entry of the source. Read-outs that look alike come from different tables or passages of the source.

Tests used:
V. cholerae toxin = test: GM1-ELISA cholerae toxin detection assay; format: cell-based, Vibrio cholerae
Protocol: GM1 (monosialotetrahexosylganglioside) was seeded and immobilized on a 96-well white/clear bottom microtiter plate (Greiner) microtiter plates with the following procedure: GM1 stock solution (2 mg/mL in PBS) was diluted with PBS (final conc. 10 μg/mL). 200 μL of the GM1 solution was added to each well and incubated at 37° C. without shaking for 4-16 hours. The plates were washed with PBS (×3). Bovine serum albumin (BSA) was dissolved in PBS (final conc. 4 mg/mL) and 200 μL of the BSA-PBS were added to each well and incubated at 37° C. without shaking for at least 4 hours. The plates were washed with PBS (×3) and were stored in fridge until use. VC1 wild-type strain with of the tested compounds (Tryptophol acetate and Tyrosol acetate both in concentration of 100 μM) and a control with bacteria only, were grown and incubated with aeration and shaking overnight in LB medium at 30° C. The cultures were spinned-down for 5 min at 5,000 rcf and the supernatant was taken and diluted 1:2 with a BSA-PBS 4 mg/mL solution. […] 100 μL of the luminol working solution were added to each well, the plate was shaken for 1.5-2 minutes and the luminescence was measured using a Microtiter Plate Reader (Varioskan Flash, Thermo). Luminescence values were normalized to the control.

[1] = test system: V. cholerae VC1 (WT) and MM920; test: V. cholerae biofilm modulation (CLSM, crystal violet); format: cell-based, Vibrio cholerae
Protocol: The various pathogenic indicator strains used in this study were V. cholerae strain MM920 (ACqsA AluxQ), Vibrio harveyi strain MM30 (LuxS, Tn5). To initiate biofilm formation, bacteria was grown in the absence of the V. cholerae autoinducer 1 (CAI1). In addition, the bacteria were grown in presence of: 900 nM CAI1 (Vibrio Cholerae MM920), 900 nM CAI1, 200 μM Tryptophol acetate and 200 μM Tyrosol acetate, and 200 μM Tryptophol acetate and 200 μM Tyrosol acetate.
Biofilms were grown under shaking conditions at 30° C. in 96-well plate (Thermo Scientific, Rochester, N.Y., USA). […] The stained cells were washed twice with PBS. Biofilm images were taken by CLSM (Plan-Apochromat 20×/0.8 M27, Zeiss LSM880, Germany).
For static biofilm assay, overnight cultures of V. cholerae strain MM920 was diluted 1:10 in fresh LB medium containing a final concentration of 100 μM from each Tryptophol acetate and Tyrosol acetate or DMSO (up to 1%) as control. […] One in absence of the V. cholerae autoinducer (CAI-1) and the other one in presence of 900 nM CAI-1. Biofilms were grown under non-shaking conditions at 37° C. in 96-well plate (Thermo Scientific, Rochester, N.Y., USA). […] The stained cells were washed twice with PBS. Biofilm images were taken by CLSM (Plan-Apochromat 20×/0.8 M27, Zeiss LSM880, Germany).
Biofilm matrixes of V. cholerae VC1 WT (FIGS. 23Ai and 23Aii), and the V. cholerae MM920 mutant (FIGS. 23Aiii and 23Aiv) were grown for 24 hours with or without tryptophol acetate in the growth medium, and stained using the BacLight® Dead/Live Kit to distinguish viable cells.

[2] = DPPH radical absorbance assay; format: biochemical; conditions: 517 nm
Source text: FIGS. 34A-34B are graphs showing the anti-oxidation effect of tryptophol acetate and tyrosol acetate. Anti-oxidative capacity of the molecules as measured by DPPH (34A) and ORAC (34B) assays. 34A. The results are presented as a percentage of absorbance inhibition (517 nm, the absorbance maximum of DPPH) in the presence of tryptophol acetate (1) alone, tyrosol acetate alone (2) alone, and 1+2 together. 34B. Fluorescence decay of fluorescein induced by AAPH in the absence or presence of 1 and 2. Reaction mixtures containing fluorescein (60 nM) and AAPH (18.75 mM) in 200 μl of phosphate buffer (75 mM, pH 7.4) were incubated at 37° C. for 800 min. Changes in fluorescence intensity emitted by fluorescein were monitored. Results are presented as the net area under the curve (AUC). Each value is the mean±SD of triplicate experiments. ***p<0.0001
The inventors analyzed the anti-oxidation properties of the molecules (FIG. 34) as oxidation processes and generation of reactive oxidative species (ROS) are recognized as contributing to toxic effects in diverse diseases and pathological conditions. FIG. 34 depicts application of a spectrophotometric assay monitoring the visible absorbance of the 2,2-diphenyl-1-picrylhydrazyl (DPPH) radical, which is widely employed for evaluating the anti-oxidation activity of biomolecules. […]

Peritoneal macrophages = test: In vitro LPS stimulation of peritoneal macrophages, cytokine ELISA (24 hr); format: cell-based, mice; conditions: 100 μM, 0.1 μg/ml LPS
Protocol: Peritoneal macrophages were harvested using the protocol as described previously (Zhang et al., 2008). Elicited macrophages were harvested from WT mice which had received a 2.5 ml intraperitoneal administration of 3% Brewer thioglycolate broth (Sigma, UK) 72 hr prior collection.
Peritoneal macrophages cells (5×10^5/ml) were cultured with 0.1 μg/ml Lipopolysaccharides (LPS-Escherichia coli serotype 0127:B8, Sigma-Aldrich) and in the presence of 100 μM: tryptophol acetate, tyrosol acetate, dopamine HCl, caffeic acid, or combination of tryptophol acetate and tyrosol acetate, for 24 hr. Following culture, supernatants were collected and stored at −20° C. for the detection of the IL-6 cytokine. For IL-la detection, the inventors induced macrophages lysis by adding fresh RPMI medium and thawing three times.
IL-la and IL-6 levels were measured in peritoneal exudate fluids and LPS-stimulated culture supernatants by ELISA. To detect the cytokines, a R&D ELISA kit (Catalog #MLA00 and DY406, respectively) was used as per the manufacturer's instructions. A standard curve was constructed using serial dilutions of purified IL-la or IL-6 starting at a concentration of 15 ng/ml.

Vibrio cholerae MM920 = test: Quorum sensing bioluminescence reporter assay; format: cell-based; conditions: for IC50: Vibrio cholerae, read-out: IC50 of QS inhibition in V. cholera
Protocol: Bioluminescence assay was performed with mutant bacteria lacking the nucleotide sequences encoding the relevant autoinducers (AI). Additionally, the bacteria were cloned with bioluminescence reporter plasmids in order to measure their luminescence intensity when quorum sensing gene expression occurs. Ninety-six (96) well microtiter plate assays were used to assess AI activation (agonist) or inhibition (antagonist) of the following bacteria: Agrobacterium tumefaciens, which responds to the C8 autoinducer, and both Vibrio cholerae and Vibrio harveyi, which respond to the (S)-4,5-dihydroxy-2,3-pentanedione (DPD) autoinducer to communicate.
Agrobacterium tumefaciens A136 pCF218 pMV26 culture was grown in Luria-Bertani broth (LB; Miller's broth) supplemented with 25 μg/ml of kanamycin and 4.5 μg/ml of tetracycline at 28-30° C. for 24 h. Both Vibrio harveyi and Vibrio cholerae strains were grown in LB Broth (Lennox) supplemented with tetracycline at 30° C. for 24 h. The overnight cultures were diluted to an absorbance density (OD600) of 0.05 by fresh LB medium. The probiotic yogurt (e.g., kefir)-extracted molecules were tested at gradient concentration in two types of experiments: competition assay in the absence (activation/agonist) or presence (inhibition/antagonist) of 400 pM 3-oxo-C8-HSL (A. tumefaciens A136 pCF218 pMV26) CAI1 (Vibrio Cholerae MM920) 200 nM DPD (Vibrio harveyi MM30) and the OD600 of 0.05 by fresh LB medium. A clear bottom 96-well microliter plate was prepared with wells containing test compounds serially diluted into the LB medium (triplicates). A total of 100 μl of the diluted cells were added to each well. The control sample contained the bacteria and specific AI molecules without the yogurt extracted molecules. Luminescence was measured every 20 min for 19 h with continuous shaking at 30° C., using a Microtiter Plate Reader (Varioskan Flash, Thermo). Average luminescence values divided by OD600 values were plotted against the added compound concentration.
The effect of the Kefir biomass crude extract molecules on the following bacteria, A. tumefaciens A136, V. cholerae MM920 and V. harveyi MM30 were measured as described by Brenier et al. (2008). The overnight culture was diluted to an absorbance density (OD600) of 0.05 by fresh LB medium. A clear bottom 96-well microliter plate was prepared with wells containing test compounds serially diluted into the LB medium (triplicates). A total of 100 μL of the diluted cells was added to each well. The control sample contained the bacteria and specific autoinducer molecules without the kefir crude extracted molecules. Luminescence was measured every 20 min for 19 h with continuous shaking at 30° C., using a Microtiter Plate Reader (Varioskan Flash, Thermo). Two types of experiments were performed: a competition assay in the presence of 400 pM 3-oxo-C8-HSL (A. tumefaciens A136), CAI-1 (V. Cholerae MM920) 200 nM DPD (V. harveyi MM30) and the other in the absence of these AI's to measure agonistic activity of the crude extracted molecules. Average luminescence values divided by OD600 values were plotted against the added compound concentration.

Structure (SMILES) | V. cholerae toxin levels (V. cholerae toxin) | Biofilm volume, crystal violet (CV) assay ([1]; 0-200 μM, 24 hr) | Biofilm of V. cholerae MM920 with CAI-1 ([1]; 900 nM CAI-1 and 100 μM) | Biofilm matrix of V. cholerae VC1 WT ([1]; 100 μM, 24 hours) | Quenching of DPPH absorbance [2] [%] | Production of IL-6 (Peritoneal macrophages) | Production of IL-la (Peritoneal macrophages) | IC50 (Vibrio cholerae MM920; high volume) [µM] | Effect on QS in V. cholera, high volume (Vibrio cholerae MM920; high volume) | Effect on QS in V. cholera, low volume (Vibrio cholerae MM920) | V. cholerae biofilm production ([1]; 100 μM) | IC50 (Vibrio cholerae MM920) [µM] | Effect on QS in V. cholera, high volume (Vibrio cholerae MM920; high volume, listed as 180 molecule) | Effect on QS in V. cholera, low volume (Vibrio cholerae MM920; listed as 180 molecule)
CC(=O)OCCc1c[nH]c2ccccc12 [Tryptophol acetate] | reduce V. cholerae toxin levels in a dose dependent manner | increased biofilm volume | re-formation of a dense and uniform biofilm layer | significantly denser biofilm | 10 | dramatically reduced | dramatically reduced | 12.7 ± 2 | inhibits QS | activates QS |  |  |  | 
CC(=O)OCCc1ccc(O)cc1 [Tyrosol acetate] | inhibit; also recorded: reduction of toxin production by V. cholerae in a dose dependent manner |  |  |  | ~3 | dramatically reduced | dramatically reduced |  | totally inhibits QS | activates QS | inhibit | 24.4 ± 2.4 | totally inhibited QS | activated QS
